Assay results from US8471061B2 (priority 2004, dated 2013).
Read-outs that look alike come from different tables or passages of the source.

Assays:
apple variety “Fuji” = test: Coloring test of apple; type: in vivo
Description: The 5-aminolevulinic acid phosphate obtained in Example 1 was dissolved in ion exchange water to the predetermined concentration shown in the following table. A spreader (“Approach BI” manufactured by Maruwa Biochemical) was added to the liquid to a concentration of 0.1% by weight. The pH was adjusted using phosphoric acid.
An aqueous 5-aminolevulinic acid hydrochloride solution was prepared in the same manner, except that the above-described 5-aminolevulinic acid phosphate was changed to 5-aminolevulinic acid hydrochloride and the phosphoric acid for pH adjustment was changed to hydrochloric acid.
The thus prepared liquid was sprayed at a ratio of 2 liters per branch on three main branches where young fruits of an apple variety “Fuji” bored but not yet colored into red (September 15). About 2 months thereafter (November 6), the apples were harvested and their coloring degree was examined. A color meter CR-200 manufactured by MINOLTA CAMERA was used for the measurement of color.
The 5-aminolevulinic acid nitrate obtained in Example 16 was dissolved in ion exchange water to the predetermined concentration shown in Table 16. A spreader (“Approach BI” manufactured by Maruwa Biochemical) was added to the liquid to a concentration of 0.1% by weight. The pH was adjusted using nitric acid.
A solution was prepared in the same manner, except that the above-described 5-aminolevulinic acid nitrate was changed to 5-aminolevulinic acid hydrochloride and the nitric acid was changed to hydrochloric acid.
The 5-aminolevulinic acid p-toluenesulfonate obtained in Example 23 was dissolved in ion exchange water to the predetermined concentration shown in Table 24. A spreader (“Approach B1” manufactured by Maruwa Biochemical) was added to the liquid to a concentration of 0.1% by weight. The pH was adjusted using p-toluenesulfonic acid.
A solution was prepared in the same manner, except that the above-described 5-aminolevulinic acid p-toluenesulfonate was changed to 5-aminolevulinic acid hydrochloride and the p-toluenesulfonic acid was changed to hydrochloric acid.

[1] = tested on: New Zealand white rabbits (males), shaved uninjured skin; conditions: in vivo
Description: (§1) Using three New Zealand white rabbits (males), a solution prepared by dissolving 0.5 g of 5-aminolevulinic acid phosphate in 0.5 ml of distilled water (pH 3.1) was applied for 4 hours to a 2.5 cm square area of the shaved uninjured skin of each animal which was then observed for 1, 24, 48 and 72 hours.

[2] = Stimulation test (sense of taste, solid put on the tongue); type: in vivo; parameters: key to sense of taste stimulation: 0: No stimulation is felt.; 1: There is a stimulation but weak.; 2: There is a strong stimulation; conditions: for sense of taste stimulation: 5 mg of solid on the tongue, one score per subject, five subjects
Description: Each of five subjects has evaluated the sense of taste of the 5-aminolevulinic acid phosphate obtained in Example 1, in accordance with the following criteria by directly putting 5 mg of its solid on the tongue.
• 0: No stimulation is felt. • 1: There is a stimulation but weak. • 2: There is a strong stimulation.
The sense of taste was evaluated in the same manner as in Example 6, except that 5 mg of solid of 5-aminolevulinic acid hydrochloride was used.

[3] = pH of solution of 0.5 g in 0.5 ml of distilled water; type: physicochemical
Description: as §1

[4] = tested on: cotton (variety; M-5 Acala); test: Salinity tolerance improving effect; type: in vivo; parameters: key: salt damage: 0 = none, 5 = plant withered
Description: A porcelain pot of 12 cm in inner diameter having no drainage hole was filled with 600 g of upland soil, and 7 to 8 seeds of cotton seeds (variety; M-5 Acala) were sowed, covered with 1 cm in thickness of the soil and allowed to grow in a green house. Thereafter, general management was carried out, and at the time of leaflet development, a salinity improving agent containing each of the compounds to be tested with respective concentrations shown in Table 12 and 0.05% (v/v) of a spreader (Neoesterin: manufactured by Kumiai Chemical Industry) was prepared and was applied to foliage at an application volume of 100 liters per 10 are. Four days thereafter, sodium chloride in an amount which corresponds to 0 to 1.5% by weight per soil weight as shown in Table 12 was dissolved in 30 ml of water and added dropwise to the soil. By further continuing general cultivation, examination was carried out 23 days thereafter. the examination was carried out by naked eye observation, and the results of salt damage were evaluated based on the following 6 steps.
• 0: Absolutely no salt damage is observed. • 1: Very weak salt damage is observed. • 2: Weak salt damage is observed. • 3: Obvious salt damage is observed. • 4: Strong salt damage is observed. • 5: The plant body withered up due to salt damage.

[5] = Test on the generation of silver chloride precipitation with silver nitrate; type: physicochemical; conditions: 0.5 g with 0.5 g of silver nitrate in 10 ml of ion exchange water, 5 minutes
Description: In 10 ml of ion exchange water, 0.5 g of 5-aminolevulinic acid phosphate and 0.5 g of silver nitrate were dissolved, the mixture was allowed to stand still for 5 minutes, and conditions of the liquid was observed. […] In this connection, 0.5 g of 5-aminolevulinic acid hydrochloride and 0.5 g of silver nitrate were dissolved in 10 ml of ion exchange water and allowed to stand still for 5 minutes, and conditions of the liquid was observed.
In 10 ml of ion exchange water, 0.5 g of 5-aminolevulinic acid nitrate and 0.5 g of silver nitrate were dissolved, the mixture was allowed to stand still for 5 minutes, and conditions of the liquid was observed.
In this connection, 0.5 g of 5-aminolevulinic acid hydrochloride and 0.5 g of silver nitrate were dissolved in 10 ml of ion exchange water and allowed to stand still for 5 minutes, and conditions of the liquid was observed.
In 10 ml of ion exchange water, 0.5 g of 5-aminolevulinic acid p-toluenesulfonate and 0.5 g of silver nitrate were dissolved, the mixture was allowed to stand still for 5 minutes, and conditions of the liquid was observed.

[6] = treating concentration 10 ppm, NaCl 0 wt % per soil weight
[7] = treating concentration 10 ppm, NaCl 0.5 wt % per soil weight
[8] = treating concentration 10 ppm, NaCl 0.75 wt % per soil weight
[9] = treating concentration 10 ppm, NaCl 1 wt % per soil weight
[10] = treating concentration 10 ppm, NaCl 1.5 wt % per soil weight
[11] = treating concentration 30 ppm, NaCl 0 wt % per soil weight
[12] = treating concentration 30 ppm, NaCl 0.5 wt % per soil weight
[13] = treating concentration 30 ppm, NaCl 0.75 wt % per soil weight
[14] = treating concentration 30 ppm, NaCl 1 wt % per soil weight
[15] = treating concentration 30 ppm, NaCl 1.5 wt % per soil weight
[16] = treating concentration 100 ppm, NaCl 0 wt % per soil weight
[17] = treating concentration 100 ppm, NaCl 0.5 wt % per soil weight
[18] = treating concentration 100 ppm, NaCl 0.75 wt % per soil weight
[19] = treating concentration 100 ppm, NaCl 1 wt % per soil weight
[20] = treating concentration 100 ppm, NaCl 1.5 wt % per soil weight
[21] = treating concentration 300 ppm, NaCl 0 wt % per soil weight
[22] = treating concentration 300 ppm, NaCl 0.5 wt % per soil weight
[23] = treating concentration 300 ppm, NaCl 0.75 wt % per soil weight
[24] = treating concentration 300 ppm, NaCl 1 wt % per soil weight
[25] = treating concentration 300 ppm, NaCl 1.5 wt % per soil weight
[26] = male, New Zealand white, rabbit, 1 h
[27] = male, New Zealand white, rabbit, 24 h
[28] = male, New Zealand white, rabbit, 48 h
[29] = male, New Zealand white, rabbit, 72 h

Cl.NCC(=O)CCC(=O)O [5-aminolevulinic acid hydrochloride, reference compound]
Coloring, L (apple variety “Fuji”; 100 ppm (pH 5.0)): 42.28
Coloring, a (apple variety “Fuji”; 100 ppm (pH 5.0)): 25.96
Coloring, b (apple variety “Fuji”; 100 ppm (pH 5.0)): 14.72
Coloring, L (apple variety “Fuji”; 200 ppm (pH 4.8)): 42.34
Coloring, a (apple variety “Fuji”; 200 ppm (pH 4.8)): 30.92
Coloring, b (apple variety “Fuji”; 200 ppm (pH 4.8)): 14.41
judgement by the OECD Guideline from pH (animal test not carried out) ([1]; rabbit): judged corrosive
sense of taste stimulation [2]: 2
pH of solution [3]: ≤ 2.0
salt damage evaluation [4, 6]: 0
salt damage evaluation [4, 7]: 1
salt damage evaluation [4, 8]: 1
salt damage evaluation [4, 9]: 1
salt damage evaluation [4, 10]: 2
salt damage evaluation [4, 11]: 0
salt damage evaluation [4, 12]: 1
salt damage evaluation [4, 13]: 2
salt damage evaluation [4, 14]: 3
salt damage evaluation [4, 15]: 3
salt damage evaluation [4, 16]: 0
salt damage evaluation [4, 17]: 1
salt damage evaluation [4, 18]: 1
salt damage evaluation [4, 19]: 2
salt damage evaluation [4, 20]: 3
salt damage evaluation [4, 21]: 0
salt damage evaluation [4, 22]: 0
salt damage evaluation [4, 23]: 1
salt damage evaluation [4, 24]: 1
salt damage evaluation [4, 25]: 2
generation of precipitate [5]: Generation of the precipitate was found

NCC(=O)CCC(=O)O.O=P(O)(O)O [5-aminolevulinic acid phosphate, 5-aminolevulinic Acid Phosphate]
Coloring, L (apple variety “Fuji”; 100 ppm (pH 5.0)): 42.37
Coloring, a (apple variety “Fuji”; 100 ppm (pH 5.0)): 27.45
Coloring, b (apple variety “Fuji”; 100 ppm (pH 5.0)): 14.54
Coloring, L (apple variety “Fuji”; 200 ppm (pH 5.4)): 42.43
Coloring, a (apple variety “Fuji”; 200 ppm (pH 5.4)): 31.06
Coloring, b (apple variety “Fuji”; 200 ppm (pH 5.4)): 14.63
Coloring of red compared with 5-aminolevulinic acid hydrochloride (apple variety “Fuji”; in vivo): Coloring of red was denser
Formation of dropsy and edema (formed numbers), per rabbit ([1]; male, New Zealand white, 1 h): 0
Formation of erythema and dry crust (formed numbers), per rabbit ([1]; male, New Zealand white, 1 h): 1
Formation of dropsy and edema (formed numbers), per rabbit ([1]; male, New Zealand white, 24 h): 0
Formation of erythema and dry crust (formed numbers), per rabbit ([1]; male, New Zealand white, 24 h): 1
Formation of dropsy and edema (formed numbers), per rabbit ([1]; male, New Zealand white, 48 h): 0
Formation of erythema and dry crust (formed numbers), per rabbit ([1]; male, New Zealand white, 48 h): 0
Formation of dropsy and edema (formed numbers), per rabbit ([1]; male, New Zealand white, 72 h): 0
Formation of erythema and dry crust (formed numbers), per rabbit ([1]; male, New Zealand white, 72 h): 0
Total formed numbers after 24 hours and 72 hours ([1]; male, New Zealand white, rabbit): Total formed numbers after 24 hours and 72 hours: 3
Formation of dropsy and edema (formed numbers) [1, 26]: 0
Formation of dropsy and edema, Total of three rabbits [1, 26]: 0
Formation of erythema and dry crust (formed numbers) [1, 26]: 0
Formation of erythema and dry crust, Total of three rabbits [1, 26]: 3
skin reaction observed ([1]; male, New Zealand white, rabbit, 4 h): very slight red spots were observed within 24 hours, but became normal when observed after 48 hours
Formation of dropsy and edema (formed numbers) [1, 27]: 0
Formation of dropsy and edema, Total of three rabbits [1, 27]: 0
Formation of erythema and dry crust (formed numbers) [1, 27]: 0
Formation of erythema and dry crust, Total of three rabbits [1, 27]: 3
Formation of dropsy and edema (formed numbers) [1, 28]: 0
Formation of dropsy and edema, Total of three rabbits [1, 28]: 0
Formation of erythema and dry crust (formed numbers) [1, 28]: 0
Formation of erythema and dry crust, Total of three rabbits [1, 28]: 0
Formation of dropsy and edema (formed numbers) [1, 29]: 0
Formation of dropsy and edema, Total of three rabbits [1, 29]: 0
Formation of erythema and dry crust (formed numbers) [1, 29]: 0
Formation of erythema and dry crust, Total of three rabbits [1, 29]: 0
skin stimulation ([1]; rabbit): skin stimulation was not observed
stimulation classification (United Nations recommendation GHS) ([1]; rabbit): does not come under a stimulus substance
stimulation on the tongue in comparison with hydrochloride ([2]; 5 mg of solid): strong stimulation was not found
sense of taste stimulation [2]: 1
pH of solution [3]: 3.1
salt damage evaluation [4, 6]: 0
salt damage evaluation [4, 7]: 0
salt damage evaluation [4, 8]: 1
salt damage evaluation [4, 9]: 2
salt damage evaluation [4, 10]: 3
salt damage evaluation [4, 11]: 0
salt damage evaluation [4, 12]: 0
salt damage evaluation [4, 13]: 0
salt damage evaluation [4, 14]: 1
salt damage evaluation [4, 15]: 2
salt damage evaluation [4, 16]: 0
salt damage evaluation [4, 17]: 1
salt damage evaluation [4, 18]: 2
salt damage evaluation [4, 19]: 3
salt damage evaluation [4, 20]: 4
salt damage evaluation [4, 21]: 0
salt damage evaluation [4, 22]: 1
salt damage evaluation [4, 23]: 1
salt damage evaluation [4, 24]: 2
salt damage evaluation [4, 25]: 3
generation of precipitate [5]: Generation of the precipitate was not found
